“And” between values parts separate entries of the source, which are not always exact repeats. Equal values may be shown once.
CC(C)(C)C(O)/C(=C\c1ccc(Cl)cc1)n1cncn1 (stereo not drawn)
solubility (mole fraction)
Settings	278.15 K	283.15 K	288.15 K	293.15 K	298.15 K	303.15 K	308.15 K	313.15 K	318.15 K	323.15 K
in ethyl acetate	0.0106	0.0112	0.016	0.0167	0.0187	0.0201	0.0253	0.028	0.035	0.0536
in ethylene glycol	0.000907	0.000983	0.00103	0.00118	0.00128	0.00166	0.0018	0.00202	0.00248	0.0025
in isobutanol	0.0157	0.0177	0.0185	0.0197	0.0225	0.0257	0.0261	0.0365	0.0425	0.0566
in isobutyl acetate	0.00727	0.0102	0.0116	0.0136	0.0159	0.0199	0.0219	0.0263	0.0335	0.0423
in isopropanol	0.0112	0.0122	0.0141	0.0157	0.0189	0.0248	0.0268	0.0326	0.038	0.047
in methyl acetate	0.0084	0.00938	0.0116	0.0137	0.0151	0.0184	0.0214	0.0236	0.0318	0.0383
in n-butanol	0.015	0.0171	0.0196	0.0221	0.0249	0.0309	0.0355	0.0406	0.0475	0.0623
in n-butyl acetate	0.0118	0.0131	0.0153	0.0182	0.0204	0.0247	0.0291	0.0332	0.0364	0.0527
in n-octanol	0.0159	0.0177	0.02	0.0225	0.0238	0.0255	0.0287	0.0369	0.044	0.0511
in n-propanol	0.0143	0.0163	0.0196	0.0218	0.0231	0.0263	0.0273	0.0332	0.0441	0.0497
in n-propyl acetate	0.0114	0.0123	0.0147	0.0169	0.0269	0.0277	0.0362	0.037	0.052	0.0556
in propylene glycol	0.00332	0.00359	0.00423	0.00483	0.00737	0.00749	0.00874	0.0101	0.0139	0.0174
in water	2.2e-06 and 3.2e-06	2.3e-06 and 3.6e-06	2.4e-06	2.6e-06	2.7e-06	2.8e-06	3e-06	–	–	4.2e-06

Source: BigSolDB 2.1
